Like-named read-outs stand apart in the source and are kept apart here.
Legend:
[1] = system: Cholesterol-Fed Female New Zealand White Rabbits; assay: Serum cholesterol, lipoprotein cholesterol and triglycerides in cholesterol-fed rabbits; type: in vivo, New Zealand White rabbit; conditions: rabbit serum, 0.4% in diet, 7 days, N = 5, fasted overnight
Method: Perform five independent experiments in the following manner. […] Solubilize the MDL compounds in 100% ethanol. Spray the chow with the MDL mixtures and allow to dry overnight in a chemical fume hood. Spray control chow with ethanol. […] On day 7, bleed (~2 mL) rabbits (fasted overnight) from a marginal ear vein. Euthanize rabbits by carbon dioxide overdose. Record the total body and liver weights in grams. Record food as grams·days^-1 ·rabbits^-1. Use aliquots of fresh serum for clinical chemistries, lipoprotein cholesterol determination, thiobarbituric acid reactive substances (TBARS) and compound and metabolite concentrations in serum. Freeze livers (~5 gram aliquots) at -20° C. for compound and metabolite concentration determination at a later time.
Allow blood to clot at room temperature for 30 minutes. Obtain serum after centrifugation for 10 min at 5° C. at 3000 rpm in a Beckman GPKR centrifuge with a GH rotor. […] Calculate cholesterol and triglycerides as mg/dL.
Separate lipoprotein fractions (very low density lipoprotein, VLDL, low density lipoprotein, LDL and high density lipoprotein, HDL) on a Sepharose 6HR column (1×30 cm, Pharmacia) attached to a Waters Powerline HPLC system. Inject serum (50 μL) onto the column and elute with phosphate buffered saline, pH 7.4, at a flow rate of 0.5 mL/min. […] Measure absorbance at 500 nm. The lipoprotein subfractions are quantitated as follows:

[2] = HPLC quantitation of compound and metabolite concentration in rat serum and liver; conditions: in vivo; for concentration at 96 h: po, 0.3% in diet, 4 days
Excerpt: (§1) A typical experiment consists of 4-6 groups of rats (N=5 per group) with 1 group being a control which receives no MDL compound and the other groups being treated with 0.3% MDL compound. Some of the compounds are either repeated at 0.3% or evaluated again at the lower dose of 0.1%. House Male Sprague-Dawley rats, 50-100 g, (Harlan Laboratories, Indianapolis, Ind.) in groups of 5, feeding ad libitum water and Purina Rodent chow (#5002) with or without MDL compound as a dietary admixture for 4 days. Make dietary admixtures (0.3%) by mixing 1.2 grams of an MDL compound with 400 grams of Purina rodent chow (#5002). Mix the MDL compound with approximately 50 grams of food using a mortar and pestle. This is added to the remainder of the food and mixed for 3 hours on a rotary mixer. In the morning of day 5, anesthetize non-fasted rats with carbon dioxide, and collect blood by cardiac puncture. Sacrifice rats by cervical dislocation. Record body weights and liver weights in grams. Record food consumption as grams·day^-1 ·rat^-1. Deaths are recorded as mortality. Use aliquots of fresh serum for clinical chemistries, thiobarbituric acid reactive substances (TBARS) and conjugated diene measurements. Freeze aliquots of serum (~0.5 mL) and whole livers at -20° C. for compound and metabolite concentration determination at a later time.
Determine serum and liver concentrations of parent compound and the metabolites, bisphenol and diphenoquinone, by reverse phase HPLC using a Waters 990 Powerline system. Homegenize livers (1 gram samples) with 5.0 mL PBS, pH 7.4, using a Polytron tissue homogenizer at setting 5 for 20-30 seconds. Extract serum or liver homogenates as follows: add 100 μL of either serum or homogenate to 2.0 mL diethyl ether:ethanol (3:1) while vortexing the tube. Cap the sample tubes and centrifuge for 10 min at 5° C. at 3500 rpm in a Beckman GPKR centrifuge with a GH 3.7 rotor. Transfer the supernatants to clean tubes and dry under N2. Reconstitute samples with 200 μL of acetonitrile:hexane:0.1 M ammonium acetate (90:6.5:3.5, by vol.). Then, inject 100 μL onto a Waters Deltapak C18-300 Å column, and elute with an 83% acetonitrile:17% water mobile phase at a flow rate of 1.5 mL/min. Record absorbances at the wavelengths of 240, 254, and 420nm. Calculate compound concentrations from known quantities of authentic parent compounds after correction for recovery. […]. Calculate concentrations as μg/mL of serum and μg/g of liver.

[3] = Animal parameters (food, body weight, liver weight, mortality) in male Sprague-Dawley rats; type: in vivo; conditions: for mortality at 96 h: po, read-out: mortality (deaths per group); for mortality at 96 h / body wt., percent of control: rat
Excerpt: as §1

[4] = system: oxidation of serum lipids; assay: TBARS assay (oxidation of serum lipids) in cholesterol-fed rabbits; type: in vivo, New Zealand White rabbit; conditions: rabbit serum, 0.4% in diet, 7 days, N = 5, CuSO4-initiated, 5 hr
Excerpt: Perform five independent experiments in the following manner. Each study has a control group and 1-5 groups treated with MDL compound (N=5 per group). Feed Female New Zealand White rabbits (Hazelton, ~2.0-2.3 kg) 0.2% cholesterol enriched rabbit chow (Purina #5322) with or without 0.4% MDL compound. Solubilize the MDL compounds in 100% ethanol. Spray the chow with the MDL mixtures and allow to dry overnight in a chemical fume hood. Spray control chow with ethanol. Feed rabbits 100 grams food per day for 7 days (0.6% MDL 103,491 were fed for 14 days); make available water ad libitum. On day 7, bleed (~2 mL) rabbits (fasted overnight) from a marginal ear vein. Euthanize rabbits by carbon dioxide overdose. Record the total body and liver weights in grams. Record food as grams·days^-1 ·rabbits^-1. Use aliquots of fresh serum for clinical chemistries, lipoprotein cholesterol determination, thiobarbituric acid reactive substances (TBARS) and compound and metabolite concentrations in serum. […]
TBARS are a qualitative indication of the oxidation of lipids in a sample. […] Upon incubation with thiobarbituric acid, the absorbance of the aldehydes can be detected at 530-540 nm. […] Measure absorbances at 540 nm using a Biotek model EL311 microplate reader. The nmoles of MDA produced are calculated from a standard curve of 0 to 10 nmoles of MDA prepared from malonaldehyde bis(dimethylacetal). […]

[5] = Animal parameters (food, body weight, liver weight) in cholesterol-fed rabbits; type: in vivo, New Zealand White rabbit; conditions: 0.4% in diet, 7 days, N = 5
Excerpt: Perform five independent experiments in the following manner. Each study has a control group and 1-5 groups treated with MDL compound (N=5 per group). Feed Female New Zealand White rabbits (Hazelton, ~2.0-2.3 kg) 0.2% cholesterol enriched rabbit chow (Purina #5322) with or without 0.4% MDL compound. Solubilize the MDL compounds in 100% ethanol. Spray the chow with the MDL mixtures and allow to dry overnight in a chemical fume hood. Spray control chow with ethanol. Feed rabbits 100 grams food per day for 7 days (0.6% MDL 103,491 were fed for 14 days); make available water ad libitum. On day 7, bleed (~2 mL) rabbits (fasted overnight) from a marginal ear vein. Euthanize rabbits by carbon dioxide overdose. Record the total body and liver weights in grams. Record food as grams·days^-1 ·rabbits^-1. Use aliquots of fresh serum for clinical chemistries, lipoprotein cholesterol determination, thiobarbituric acid reactive substances (TBARS) and compound and metabolite concentrations in serum. Freeze livers (~5 gram aliquots) at -20° C. for compound and metabolite concentration determination at a later time.

[6] = system: oxidation of serum lipids; assay: TBARS assay (oxidation of serum lipids) in male Sprague-Dawley rats; type: in vivo; conditions: feed or water, 96 h, rat serum, 4 days, N = 5, CuSO4-initiated, 3 hr, read-out: TBARS, percent of control
Method: as §1, with “Some of the compounds are either repeated at 0.3% or evaluated again at the lower dose of 0.1%. House Male Sprague-Dawley rats, 50-100 g, (Harlan Laboratories, Indianapolis, Ind.) in groups of 5, feeding ad libitum water and Purina Rodent chow (#5002) with or without MDL compound as a dietary admixture for 4 days. Make dietary admixtures (0.3%) by mixing 1.2 grams of an MDL compound with 400 grams of Purina rodent chow (#5002).” left out
In this assay the oxidation of serum lipids is initiated with CuSO4, resulting in the formation of aldehydes, such as malondialdehyde (MDA). Upon incubation with thiobarbituric acid, the absorbance of the aldehydes can be detected at 530-540 nm. […] Measure TBARS as follows: mix 100 μL of serum with 400 μL of a 5 mmol CuSO4 solution and incubate at 37° C. for 3 hr. Stop the reactions by addition of 1.0 mL of 20% trichloroacetic acid. […] Centrifuge samples briefly to pellet undissolved material, and transfer the supernatants to a 96-well microtiter plate. Measure absorbances at 540 nm using a Biotek model EL311 microplate reader. The nmoles of MDA produced are calculated from a standard curve of 0 to 10 nmoles of MDA prepared from malonaldehyde bis(dimethylacetal). Serum samples from treated rats are compared to serum samples from control rats that received no MDL compound.

Male Sprague-Dawley Rats = assay: Serum clinical chemistries in male Sprague-Dawley rats; type: in vivo
Method: Measurement of Antioxidant Activity and Bioavailability of Compounds of Formula (1) By In Vivo Screening in Male Sprague-Dawley Rats
as §1, with “Some of the compounds are either repeated at 0.3% or evaluated again at the lower dose of 0.1%. House Male Sprague-Dawley rats, 50-100 g, (Harlan Laboratories, Indianapolis, Ind.) in groups of 5, feeding ad libitum water and Purina Rodent chow (#5002) with or without MDL compound as a dietary admixture for 4 days. Make dietary admixtures (0.3%) by mixing 1.2 grams of an MDL compound with 400 grams of Purina rodent chow (#5002).” left out
Allow blood to clot at room temperature for 30 minutes. Obtain serum after centrifugation for 10 min at 4° C. at 3000 rpm in a Beckman J-6M/E centrifuge with a JS-4.2 rotor. […] Calculate ALP, ALT, and AST as units/L. Calculate cholesterol, triglycerides, and glucose as mg/dL.

oxidation of lipids = assay: Conjugated diene lag phase determination in rat serum; type: in vivo, Sprague-Dawley rat; conditions: rat pooled serum, 0.3% in diet, 4 days; mean of 2 determinations; not normalized to control
Excerpt: as §1, with “Use aliquots of fresh serum for clinical chemistries, thiobarbituric acid reactive substances (TBARS) and conjugated diene measurements. Freeze aliquots of serum (~0.5 mL) and whole livers at -20° C. for compound and metabolite concentration determination at a later time.” left out
Conjugated diene lag phase is another indicator of the oxidation of lipids. […] Measure the absorbances of all cuvettes and set the instrument baseline to zero using the lowest absorbing sample. […] Record the absorbance of each cuvette at 2 min intervals for a period of 840 min. […]

[7] = mean N = 5, read-out: Serum Parent (parent compound concentration)
[8] = in vivo, 0.3% in diet, 4 days, N = 5
[9] = rat serum, 0.3% in diet, 4 days, N = 5

SMILES | Liver Bis (bisphenol concentration) ([2]; 5760 min) | Liver Quin (diphenoquinone concentration) ([2]; 5760 min) | Serum Bis (bisphenol concentration) ([2]; 5760 min) | Serum Quin (diphenoquinone concentration) ([2]; 5760 min) | concentration at 96 h [2, 7] [ng/mL] | mortality at 96 h [3, 8] [%] | body wt., percent of control ([3]; 0.3% in diet, 4 days, N = 5) [%] | response vs control in vivo at 0.3 % in diet [6] [%] | ALP (alkaline phosphatase), percent of control (Male Sprague-Dawley Rats; [9]) [%] | AST (aspartate aminotransferase), percent of control (Male Sprague-Dawley Rats; [9]) [%] | further results
CC(C)=CCC[C@H](C)CCOc1cc(C(C)(C)C)c(O)c(C(C)(C)C)c1 [103,294] | 0 | 0 | 0 | 0 | 21700 | 0 | 101 | 18 | 124 | 88 | LDL cholesterol, percent of control [1]: 82%; chol tot. (total cholesterol), percent of control [1]: 94%; concentration at 96 h ([2]; mean N = 5, read-out: Liver Parent (parent compound concentration)): 64600 ng/g; food (grams eaten per day per rat), percent of control ([3]; 0.3% in diet, 4 days, N = 5): 108%; TBARS, percent of control [4]: 35%; food (grams eaten per day per rabbit), percent of control [5]: 103%; body wt., percent of control ([5]; rabbit): 100%; lw/bw (liver weight/body weight), percent of control ([5]; rabbit): 105%; GLUC (glucose), percent of control (Male Sprague-Dawley Rats; [9]): 103%; ALT (alanine aminotransferase), percent of control (Male Sprague-Dawley Rats; rat, in vivo): 132%
CC(C)=CCCC(C)CCOc1ccc(O)c(C(C)(C)C)c1 (centres unmarked) [105,411] | 0 | 0 | 0 | 0 | 1100 | 0 | 101 | 29 | 76 | 87 | Liver Parent (parent compound concentration) ([2]; 5760 min): 0; food (grams eaten per day per rat), percent of control ([3]; in vivo): 95%; ALT (alanine aminotransferase), percent of control (Male Sprague-Dawley Rats; [9]): 122%; GLUC (glucose), percent of control (Male Sprague-Dawley Rats; rat, in vivo): 96%; CONJ. DIENE (conjugated diene lag phase) (oxidation of lipids): 400 min

From patent publication US6114572A, “Substituted phenols and thiophenols useful as antioxidant agents” (priority 1997, dated 2000)
